Key:
[1] = biological target: T1, RgNanH (GRAB-Sia3 = RgNanH D282A) (Mediterraneibacter gnavus, UniProt A7B557, D282A); test: isothermal titration calorimetry; type: binding; conditions: PBS; 50 μM protein in cell, 1 mM ligand in syringe; monomeric GRAB-Sia3
T1 sequence (A7B557 243-723 D282A): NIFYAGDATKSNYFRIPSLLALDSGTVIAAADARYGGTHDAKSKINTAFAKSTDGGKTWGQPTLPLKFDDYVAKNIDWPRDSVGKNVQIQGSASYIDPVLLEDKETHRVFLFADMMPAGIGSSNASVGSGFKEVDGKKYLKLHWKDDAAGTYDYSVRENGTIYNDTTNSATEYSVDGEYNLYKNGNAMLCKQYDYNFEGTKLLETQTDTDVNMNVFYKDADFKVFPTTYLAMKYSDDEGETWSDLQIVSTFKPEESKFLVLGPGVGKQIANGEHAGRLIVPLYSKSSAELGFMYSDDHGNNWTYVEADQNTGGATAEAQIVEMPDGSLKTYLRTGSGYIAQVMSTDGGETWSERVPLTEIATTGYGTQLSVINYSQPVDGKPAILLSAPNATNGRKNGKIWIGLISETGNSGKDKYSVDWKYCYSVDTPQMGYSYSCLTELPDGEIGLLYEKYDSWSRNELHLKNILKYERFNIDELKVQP

[2] = biological target: SpNanA (GRAB-Sia = SpNanA D372N) (Streptococcus pneumoniae, UniProt P62576, D372N); conditions: PBS; 50 μM protein in cell, 1 mM ligand in syringe; monomeric GRAB-Sia

Structure (SMILES)	Kd [1]	Kd [2]
CC(=O)N[C@H]1[C@H]([C@H](O)[C@H](O)CO)O[C@@](O[C@H]2[C@@H](O)[C@@H](CO)O[C@@H](O[C@H]3[C@H](O)[C@@H](O)C(O)O[C@@H]3CO)[C@@H]2O)(C(=O)O)C[C@@H]1O (stereo partly drawn) [3′SL]	7.15 µM	17.8 µM
CC(=O)N[C@H]1[C@H]([C@H](O)[C@H](O)CO)O[C@@](OC[C@H]2O[C@@H](O[C@H]3[C@H](O)[C@@H](O)C(O)O[C@@H]3CO)[C@H](O)[C@@H](O)[C@H]2O)(C(=O)O)C[C@@H]1O (stereo partly drawn) [6′SL]	–	19.1 µM
